Experiments:
HLA-A2 molecule = target: T1, HLA-A2 molecule (Homo sapiens, UniProt P04439, D140Y/D185E/D98H/E176V/E277Q/G131W/G231S/I119V/I121R/I166T/I218V/L300P/L318F/N151K/N90K/P208A/P217A/Q86G/Q94H/R138H/R169H/T345S); assay: HLA-A2 binding affinity assay on peptide-pulsed T2 cells (HLA-A2 up-regulation, flow cytometry MFI)
T1 construct: endogenous in cells; host or cells: T2 cell line (human B and T cell hybrid), provided by Dr. J. Molldrem
Description: The listed BCMA peptides were evaluated for HLA-A2-specific binding capacity using the T2 cell line. In the assay, T2 cells were washed, resuspended in serum-free AIM-V medium to a final concentration of 1×10^6 cells/ml and transferred into wells of a 24-well tissue culture plate. The cells were pulsed with different concentrations of respective BCMA peptide (0-200 μg/ml) plus 3 μg/ml human β2-microglobulin (Sigma) and incubated at 37° C., 5% CO2 in humidified air. Following overnight incubation, the cells were washed, stained with mouse anti-human HLA-A2-FITC mAb for 15 minutes at 4° C., washed and analyzed using a FACSort™ flow cytometer with CellQuest™ v2.1 software (Becton Dickinson, San Jose, Calif.). […] Among the BCMA peptides evaluated, “#4. […] (FIG. 2).
(§1) T2 cells were pulsed overnight with various doses of peptide plus β2-microglobulin (3 μg/ml) (Sigma, St Louis, Mo.). Following overnight incubation, the cells were stained with HLA-A2-PE mAb and analyzed using a FACSCanto™ flow cytometer (BD). Peptide/HLA-A2 complex stability was measured on peptide loaded T2 cells at 0, 2, 4, 6 and 14 hours post-brefeldin A treatment by staining with HLA-A2-PE mAb and flow cytometric analysis.
as §1, with “concentrations” for “doses”, “The stability of peptide/HLA-A2” for “Peptide/HLA-A2”, “binding” for “stability”, “treatment followed” for “treatment”

[1] = tested on: CD3+ T cells obtained from HLA-A2+ donors; assay: Induction and phenotypic analysis of peptide-specific CTL by repeated peptide stimulation; assay type: cell-based, human
Description: The peptide-specific CTL were generated from different HLA-A2^+ normal donors for the evaluation of the functional activities targeting MM cell lines. To generate the peptide-specific CTL, mature dendritic cells (mDC) generated from the same donor were resuspended in serum-free AIM-V media and pulsed with 50 μg/ml of the Heteroclitic #4 BCMA72-80 (YLMFLLRKI (SEQ ID NO: 13)) peptide or “Heteroclitic #3 TACI154-162 (YLSADQVAL (SEQ ID NO: 16))” peptide, overnight at 37° C., 5% CO2 in humidified air. The peptide-pulsed mDC were washed, counted, irradiated at 10 Gy and used to prime CD3^+ T cells at a 1:20 antigen-presenting cells/peptide-to-CD3^+ T cell ratio in AIM-V media supplemented with 10% human AB serum. […] To maintain the T cells ex vivo, IL-2 (50 U/ml) was added to the cultures two days after the second stimulation. Control T cell cultures were maintained under the same culture conditions in the presence of IL-2 (50 U/ml), but without peptide stimulation. Phenotype of the resulting CTL was evaluated one week after each cycle of peptide stimulation. […] The BCMA peptide-specific CTL cultures contained a higher percentage of CD8^+ T cells (˜80%) upon 4 cycle of peptide stimulation compared to non-peptide stimulated control T cells (˜20%) (FIGS. 8A-8C).
Antigen-specific CTL can be phenotypically identified as activated/memory T cells from naïve T cells by their expression of distinct cell surface antigens. The phenotype of the BCMA-CTL were examined as potential effector cells by analyzing the phenotype of naïve and memory cells. BCMA peptide-specific CTL were generated by repeated stimulation of HLA-A2^+ normal donor's CD3^+ T cells weekly with antigen-presenting cells pulsed with 50 μg/ml heteroclitic BCMA72-80 (YLMFLLRKI (SEQ ID NO: 13)). One week after each peptide stimulation, the resulting CTL were evaluated for their phenotypic profile by flow cytometry.
BCMA peptide-specific CTL (BCMA-CTL) were generated ex vivo by repeated stimulation of CD3^+ T cells obtained from HLA-A2^+ donors with peptide-pulsed antigen-presenting cells (APC). In brief, peptide (50 μg/ml)-pulsed APC were irradiated (10 Gy) and used to stimulate T cells at a 1 APC/peptide: 20 T cell ratio. The T cell cultures were restimulated every 7 days and maintained in AIM-V medium supplemented with 10% human AB serum (BioWhittaker) in the presence of IL-2 (50 units/ml).
Phenotypic characterization was performed on BCMA-CTL after staining with Live/Dead Aqua stain kit and fluorochrome conjugated anti-human mAbs and Tetramer-PE. Alternatively, the MM and breast cancer cell lines were stained with fluorochrome-conjugated BCMA or HLA-A2 mAb. After staining, the cells were washed, fixed in 2% paraformaldehyde, and analyzed by flow cytometry.
TACI peptide-specific CTL (TACI-CTL) were generated ex vivo by repeated stimulation of enriched CD3^+ T cells obtained from HLA-A2^+ donors with peptide-pulsed antigen-presenting cells (APC). In brief, peptide (50 μg/ml)-pulsed APC were irradiated (10 Gy) and used to stimulate T cells at a 1:20 APC/peptide-to-T cell ratio. The T cell cultures were restimulated every 7 days and maintained in AIM-V medium supplemented with 10% human AB serum (BioWhittaker) in the presence of IL-2 (50 units/ml).
Phenotypic characterization was performed on the MM target cells to conform TACI expression. Phenotypic characterization was performed on the TACI-CTL after staining with Live/Dead Aqua stain kit and fluorochrome conjugated anti-human mAbs. After staining, the cells were washed, fixed in 2% paraformaldehyde, and analyzed by flow cytometry.

[2] = Donor 1, after 2 cycles of peptide stimulation
[3] = Donor 1, after 4 cycles of stimulation
[4] = Donor 1, upon 4 cycles of stimulation
[5] = Donor 2, after 2 cycles of peptide stimulation
[6] = Donor 2, after 4 cycles of stimulation
[7] = Donor 2, upon 4 cycles of stimulation

HLA-A2 binding affinity, heteroclitic vs native peptide (HLA-A2 molecule; Example 4, FIGS. 4 and 5): increased from their native peptide
Sequence: YLMFLLRKI [heteroclitic BCMA72-80, heteroclitic BCMA peptide]
change in HLA-A2 binding affinity of heteroclitic BCMA peptide compared to native peptide (HLA-A2 molecule; Example 12, n=3, p<0.05): highest increase in HLA-A2 binding affinity
Naïve (CD45RO-CCR7+) within CD8+ T cells [1, 2]: 37.4%
central memory (CM; CD45RO+CCR7+) within CD8+ T cells [1, 2]: 32.1%
central memory (CM) within CD8+ T cells [1, 3]: 44.2%
effector memory (EM; CD45RO+CCR7-) within CD8+ T cells [1, 3]: 54.6%
frequency of memory CD3+CD8+ T cells [1, 4]: 86%
frequency of naive CD3+CD8+ T cells [1, 4]: 2%
Naïve (CD45RO-CCR7+) within CD8+ T cells [1, 5]: 19.0%
central memory (CM) within CD8+ T cells [1, 5]: 49.6%
central memory (CM) within CD8+ T cells [1, 6]: 18.3%
effector memory (EM) within CD8+ T cells [1, 6]: 77.6%
frequency of memory CD3+CD8+ T cells [1, 7]: 92%
frequency of naive CD3+CD8+ T cells [1, 7]: 2%
frequency of effector memory (CD45RO+/CCR7-) CD3+CD8+ T cells ([1]; after 4 cycles of peptide stimulation): increased
percentage of CD8+ T cells in peptide-specific CTL cultures ([1]; upon 4 cycle of peptide stimulation, 50 μg/ml): ~80%

— US11517591B2, “Immunogenic peptides specific to BCMA and TACI antigens” (Dana-Farber Cancer Institute, Inc., priority 2017, dated 2022)
